Here are results for 6 compounds from ChEMBL document CHEMBL1124789, “Angiotensin-converting enzyme inhibitors. 9. Novel [[N-(1-carboxy-3-phenylpropyl)amino]acyl]glycine derivatives with diuretic activity” (J Med Chem, 1990).

The test system of test [1] is Canis familiaris. In words: Diuretic activity (ip) was tested in dogs; NI-No Increase. It is filed as functional, organism-based. The settings on record: Canis lupus familiaris; Urine.
For test [2], the system named is Canis familiaris. In words: Maximum percent decrease in blood pressure at the dose of 1.0 mg/kg ip. It is filed as functional, Canis lupus familiaris. The following applies: route intraperitoneal.
The target in test [3] is T1, Angiotensin-converting enzyme (Rattus norvegicus) (UniProt P47820).
T1 sequence (whole entry): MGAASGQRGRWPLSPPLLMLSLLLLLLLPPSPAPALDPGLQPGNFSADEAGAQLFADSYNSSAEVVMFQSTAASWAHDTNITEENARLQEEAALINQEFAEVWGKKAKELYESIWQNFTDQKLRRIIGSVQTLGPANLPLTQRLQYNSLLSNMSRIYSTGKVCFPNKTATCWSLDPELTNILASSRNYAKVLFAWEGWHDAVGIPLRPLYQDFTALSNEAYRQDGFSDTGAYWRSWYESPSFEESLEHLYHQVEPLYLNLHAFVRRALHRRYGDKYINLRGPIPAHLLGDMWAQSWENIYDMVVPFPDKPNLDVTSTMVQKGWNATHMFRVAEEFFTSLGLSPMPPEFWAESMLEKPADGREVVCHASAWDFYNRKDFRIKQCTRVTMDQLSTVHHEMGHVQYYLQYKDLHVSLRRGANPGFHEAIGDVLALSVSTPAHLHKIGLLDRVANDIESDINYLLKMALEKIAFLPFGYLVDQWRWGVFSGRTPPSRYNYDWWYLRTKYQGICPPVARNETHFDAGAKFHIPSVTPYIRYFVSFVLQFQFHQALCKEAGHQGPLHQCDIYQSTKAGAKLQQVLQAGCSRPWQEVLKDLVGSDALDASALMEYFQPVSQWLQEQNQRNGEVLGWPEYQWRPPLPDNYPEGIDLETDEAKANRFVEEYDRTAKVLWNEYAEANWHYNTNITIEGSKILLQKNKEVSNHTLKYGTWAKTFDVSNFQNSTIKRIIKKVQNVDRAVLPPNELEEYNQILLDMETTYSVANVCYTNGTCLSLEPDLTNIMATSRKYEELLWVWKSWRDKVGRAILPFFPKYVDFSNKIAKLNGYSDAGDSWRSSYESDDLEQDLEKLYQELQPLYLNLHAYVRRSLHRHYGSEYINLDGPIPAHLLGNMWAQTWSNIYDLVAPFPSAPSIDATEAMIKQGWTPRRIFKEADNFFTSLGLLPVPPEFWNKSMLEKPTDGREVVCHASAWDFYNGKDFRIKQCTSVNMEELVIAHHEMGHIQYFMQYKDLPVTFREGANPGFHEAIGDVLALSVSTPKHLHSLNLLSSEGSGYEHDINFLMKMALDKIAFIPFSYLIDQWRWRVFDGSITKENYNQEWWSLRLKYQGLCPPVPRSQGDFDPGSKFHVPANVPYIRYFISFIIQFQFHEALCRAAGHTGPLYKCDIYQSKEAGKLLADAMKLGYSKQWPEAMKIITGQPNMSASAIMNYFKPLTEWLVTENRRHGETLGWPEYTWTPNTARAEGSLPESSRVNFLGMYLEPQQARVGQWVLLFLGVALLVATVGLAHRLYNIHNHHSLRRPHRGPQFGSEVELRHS
In words: Inhibition of Angiotensin I converting enzyme(ACE) at the dose of 10 mg/kg (po) in rat. It is filed as organism-based. Also on record: dose 10 mg/kg.

The target in test [4] is T2, Angiotensin-converting enzyme (Rattus norvegicus, UniProt P47820).
T2 sequence (P47820 whole entry): T1 sequence (whole entry)
Briefly: In vitro inhibitory activity against Angiotensin I converting enzyme(ACE).

Test [5] relates to Rattus norvegicus. In words: Diuretic activity (po); N-Natriuresis. The following applies: Urine. It is filed as functional, organism-based.
Test [6] is filed under the species Rattus norvegicus. In words: Duration of action on ACE in rat. It is filed as functional.
The subject of test [7] is Canis familiaris. Briefly: Diuretic activity (ip) was tested in dogs;ND- Natriuresis and diuresis. It is filed as functional, organism-based. The following applies: Canis lupus familiaris; Urine.
Test [8] deals with Canis familiaris. In words: Maximum percent decrease in blood pressure at the dose of 100 mg/kg ip. The settings on record: route intraperitoneal. It is filed as functional, Canis lupus familiaris.
The target of test [9] is Angiotensin-converting enzyme (Homo sapiens) (UniProt P12821). In words: […] inhibitory activity against angiotensin I converting enzyme (ACE) in dog.
For test [10], the species on record is Rattus norvegicus. In words: Duration of action of the compound. It is filed as functional.
Test [11] deals with T1, Angiotensin-converting enzyme (Rattus norvegicus). Briefly: In vitro inhibitory activity against Angiotensin I converting enzyme at 100 uM concentration.
The test system of test [12] is Canis familiaris. In words: Diuretic activity (po);NI- No Increase. It is filed as functional, organism-based. The settings on record: Canis lupus familiaris; Urine.
In test [13] the target is T1, Angiotensin-converting enzyme (Rattus norvegicus). Briefly: Inhibition of Angiotensin I converting enzyme at the dose of 30 mg/kg (po) in rat. It is filed as organism-based. On the set-up: dose 30 mg/kg; scale not given: the % may be the effect or the level left.
Test [14] has the same target. Briefly: Inhibition of Angiotensin I converting enzyme(ACE) at the dose of 100 mg/kg (ip) in rat. On the set-up: dose 100 mg/kg. It is filed as organism-based.
Test [15] deals with Angiotensin-converting enzyme (Homo sapiens) (UniProt P12821). In words: Inhibition of Angiotensin I converting enzyme(ACE) at the dose of 100 mg/kg (ip) in dog. It is filed as organism-based. Also on record: dose 100 mg/kg. The settings on record: Canis lupus familiaris; target entry is the homologue from another species.
The subject of test [16] is Canis familiaris. Briefly: Diuretic activity (po) in dog; NI-No Increase. It is filed as functional, organism-based. The settings on record: Canis lupus familiaris; Urine.
Test [17] has as its target T1, Angiotensin-converting enzyme (Rattus norvegicus). Briefly: Inhibition of Angiotensin I converting enzyme(ACE) at the dose of 30 mg/kg (po) in rat. It is filed as organism-based. On the set-up: dose 30 mg/kg.
For test [18] the target is unchanged. Briefly: Inhibition of Angiotensin I converting enzyme(ACE) at the dose of 100 mg/kg (po) in rat. It is filed as organism-based. Also on record: dose 100 mg/kg.
Test [19] has as its system Rattus norvegicus. In words: Diuretic activity (po); ND-Natriuresis&diuresis. It is filed as functional, organism-based. The following applies: Urine.
Test [20] has as its target T1, Angiotensin-converting enzyme (Rattus norvegicus). Briefly: Inhibition of Angiotensin I converting enzyme(ACE) at the dose of 30 mg/kg (ip) in rat. It is filed as organism-based. Also on record: dose 30 mg/kg; scale not given: the % may be the effect or the level left.
The test system of test [21] is Rattus norvegicus. Briefly: Diuretic activity (po); NI-No Increase. The settings on record: Urine. It is filed as functional, organism-based.

SMILES strings stand for the structures. Activity calls are given as the source filed them. The rule behind the calls is not given here. Where only a bound is given, the exact number is not on record here.

The IC50 is the point on the concentration scale where inhibition reaches its midpoint. The term ED50 denotes the dose that gives a 50% effect, or the effect in half of the subjects. A word on the inhibition: it is the relative decrease from the control value, in per cent.

Sequence of Angiotensin-converting enzyme (Homo sapiens) (P12821 whole entry): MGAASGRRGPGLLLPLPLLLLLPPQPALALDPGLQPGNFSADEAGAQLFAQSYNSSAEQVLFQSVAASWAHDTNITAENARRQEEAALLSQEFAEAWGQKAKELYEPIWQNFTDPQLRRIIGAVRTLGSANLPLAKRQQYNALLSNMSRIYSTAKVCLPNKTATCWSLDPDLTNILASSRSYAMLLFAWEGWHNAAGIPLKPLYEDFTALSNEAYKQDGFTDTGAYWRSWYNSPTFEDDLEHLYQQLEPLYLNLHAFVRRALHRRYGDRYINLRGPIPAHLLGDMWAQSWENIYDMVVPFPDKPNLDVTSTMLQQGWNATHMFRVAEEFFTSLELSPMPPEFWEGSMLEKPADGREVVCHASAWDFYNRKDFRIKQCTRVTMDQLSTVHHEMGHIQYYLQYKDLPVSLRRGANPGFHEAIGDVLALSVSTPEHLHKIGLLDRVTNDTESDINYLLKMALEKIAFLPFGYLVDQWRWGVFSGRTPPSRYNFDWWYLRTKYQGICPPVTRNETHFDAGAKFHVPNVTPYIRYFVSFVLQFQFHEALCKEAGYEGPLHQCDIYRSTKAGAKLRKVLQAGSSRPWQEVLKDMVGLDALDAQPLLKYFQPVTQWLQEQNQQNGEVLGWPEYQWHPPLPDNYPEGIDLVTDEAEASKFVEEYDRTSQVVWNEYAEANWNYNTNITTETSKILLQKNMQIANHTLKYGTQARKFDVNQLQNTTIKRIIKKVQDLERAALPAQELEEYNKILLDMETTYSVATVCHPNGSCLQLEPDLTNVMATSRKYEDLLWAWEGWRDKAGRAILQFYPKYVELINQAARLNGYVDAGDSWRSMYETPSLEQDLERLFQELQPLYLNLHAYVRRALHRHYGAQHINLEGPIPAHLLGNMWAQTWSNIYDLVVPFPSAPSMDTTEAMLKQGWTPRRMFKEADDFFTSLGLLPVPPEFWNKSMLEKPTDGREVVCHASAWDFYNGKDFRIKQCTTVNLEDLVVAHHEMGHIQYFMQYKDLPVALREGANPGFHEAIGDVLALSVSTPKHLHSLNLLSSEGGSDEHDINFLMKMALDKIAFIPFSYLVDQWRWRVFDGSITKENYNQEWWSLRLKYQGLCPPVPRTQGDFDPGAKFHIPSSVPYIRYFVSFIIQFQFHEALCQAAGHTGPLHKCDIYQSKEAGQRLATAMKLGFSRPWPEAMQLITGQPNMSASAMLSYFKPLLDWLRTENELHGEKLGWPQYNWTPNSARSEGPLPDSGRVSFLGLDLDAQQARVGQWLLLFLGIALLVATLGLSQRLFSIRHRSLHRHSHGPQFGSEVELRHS

As to `CCOC(=O)[C@H](CCc1ccccc1)N[C@@H](C)C(=O)N1CCC[C@H]1C(=O)O` [ENALAPRIL], the result in the test on Canis familiaris [1] was inactive. Further, the Decrease with Canis familiaris [2] worked out at 38%.
In turn, `C[C@H](N[C@@H](CCc1ccccc1)C(=O)O)C(=O)N(Cc1ccccc1)[C@H](CCCCNc1cc(Cl)c(C(=O)O)cc1S(N)(=O)=O)C(=O)O.Cl` gave an ACE inhibition in [3] of 80%. This compound also yielded an IC50 in [4] of 2.4 µM. Besides, in the test on Rattus norvegicus [5], the Activity result is on record as “N”. In the test filed under Rattus norvegicus [6], this compound registered a Duration of 0 h.
Regarding `NS(=O)(=O)c1cc2c(cc1Cl)NCNS2(=O)=O` [HYDROCHLOROTHIAZIDE], the outcome in the test on Canis familiaris [7] was Active. Moreover, the Decrease with Canis familiaris [8] is 0%. In test [9], this compound displayed an ED50 greater than 100 mg/kg.
On to `CCOC(=O)[C@H](CCc1ccccc1)N[C@@H](C)C(=O)N(CC(=O)O)NC(=O)c1ccc(Cl)c(S(N)(=O)=O)c1.Cl`, for which the Duration in the test filed under Rattus norvegicus [10] was less than 1 h. In [11], the inhibition amounted to 40%. In addition, the results for the Activity result (in the test with Canis familiaris [12]; in test [13]) were “No increase” and 50%, respectively.
For the compound `C[C@H](N[C@@H](CCc1ccccc1)C(=O)O)C(=O)N(CC(=O)O)CC1Nc2cc(Cl)c(S(N)(=O)=O)cc2S(=O)(=O)N1` (stereo partly drawn), the ACE inhibition in [14] is 100%; in test [3] it was 50%; in test [17], 50%; in [18], 80%. This compound had an inhibition in test [15] of 100%. For the same compound, the Activity entry in the test on Canis familiaris [16] was “No increase”; in the test on Rattus norvegicus [19] it was “Natriuresis and diuresis”. Moreover, the IC50 in test [4] was determined as 38 µM. The same compound returned a Duration in the test filed under Rattus norvegicus [6] greater than 3 h. Further, the Decrease in the test with Canis familiaris [8] was determined as 21%.
For the compound `C[C@H](N[C@@H](CCc1ccccc1)C(=O)O)C(=O)N(Cc1ccccc1)[C@H](CCCCNc1cc(Cl)c(S(N)(=O)=O)cc1C(=O)O)C(=O)O.Cl`, the Activity is less than 30% in test [20] and “No increase” in the test with Rattus norvegicus [21]. In addition, the ACE inhibition in [17] is 50%. In test [4], this compound registered an IC50 of 0.68 µM. In addition, in the test filed under Rattus norvegicus [6], the Duration is less than 1 h.
